SMILES strings stand for the structures.

In general, melting point refers to the temperature, or range, at which the solid turns liquid. As usually defined, the IC50 is the point on the concentration scale where inhibition reaches its midpoint. The low end stands for inhibition by little substance, the high end for a need for much substance.

For data set [1], the target named is PDE4. Nature of the data set: Inhibition of PDE4 (cytosolic enzyme preparation from U937 line), compared with rolipram. The class given is biochemical, human. Conditions: PDE4 enzyme preparation obtained from the U937 line.

The compound `CCn1nc(C)c2c1C(=O)NCC(c1cccnc1)=N2` [Example 53, 1-Ethyl-3-methyl-5-pyrid-3-yl-6,7-dihydro-1H-pyrazolo[4,3-e][1,4]diazepin-8-one] registered a melting point of 178 °C. This compound came in with a half-inhibitory concentration (IC50) in data set [1] of 260 nM.
The matching figures for `CCn1nc(C)c2c1C(=O)NCC(c1ccccn1)=N2` [Example 54, 1-Ethyl-3-methyl-5-pyrid-2-yl-6,7-dihydro-1H-pyrazolo[4,3-e][1,4]diazepin-8-one]: 153 °C and 240 nM.
The matching figures for `CCn1nc(C(C)(C)C)c2c1C(=NC#N)NCC(c1ccccc1)=N2` [Example 57, 3-tert-Butyl-1-ethyl-5-phenyl-6,7-dihydro-1H-pyrazolo[4,3-e][1,4]diazepin-8-ylidene-cyanamide]: 250 °C and 0.13 nM.
The corresponding values for `CCn1nc(C)c2c1C(=O)NCC(c1ccc(C(F)(F)F)cc1)=N2` [Example 60, 1-Ethyl-3-methyl-5-(4-trifluoromethylphenyl)-6,7-dihydro-1H-pyrazolo[4,3-e][1,4]diazepin-8-one] are 195 °C and 580 nM.
In turn, `CCCn1nc(C(C)C)c2c1C(=S)NCC(c1ccc(C)cc1)=N2` [Example 63, 3-Isopropyl-1-propyl-5-p-tolyl-6,7-dihydro-1H-pyrazolo[4,3-e][1,4]diazepin-8-thione] showed a melting point of 162.9 °C. In data set [1], this compound displayed an IC50 of 5 nM.
In the case of `CCCn1nc(C(C)(C)C)c2c1C(=S)NCC(C(C)(C)C)=N2` [Example 64, 3,5-Di-tert-butyl-1-propyl-6,7-dihydro-1H-pyrazolo[4,3-e][1,4]diazepin-8-thione], the melting point was 205 °C. In data set [1], this compound displayed an IC50 of 4.6 nM.
Take `CCCn1nc(C(C)C)c2c1C(=S)NCC(C(C)(C)C)=N2` [Example 65, 5-tert-Butyl-3-isopropyl-1-propyl-6,7-dihydro-1H-pyrazolo[4,3-e][1,4]diazepin-8-thione]: the melting point stood at 165 °C. The compound further came in with an IC50 in data set [1] of 1.5 nM.
The corresponding values for `CCn1nc(C(C)C)c2c1C(=S)NCC(c1ccc(C)cc1)=N2` [Example 66, 1-Ethyl-3-isopropyl-5-p-tolyl-6,7-dihydro-1H-pyrazolo[4,3-e][1,4]diazepin-8-thione] are 178 °C and 0.63 nM.
Compound `CCn1nc(C(C)C)c2c1C(=S)NCC(C(C)(C)C)=N2` [Example 67, 5-tert-Butyl-1-ethyl-3-isopropyl-6,7-dihydro-1H-pyrazolo[4,3-e][1,4]diazepin-8-thione] showed a melting point of 218 °C. This compound also returned an IC50 in data set [1] of 1 nM.
For `CCn1nc(C(C)C)c2c1C(=NC#N)NCC(C(C)(C)C)=N2` [Example 80, 5-tert-Butyl-1-ethyl-3-isopropyl-6,7-dihydro-1H-pyrazolo-[4,3-e][1,4]diazepin-8-ylidenecyanamide], the melting point is 243 °C. The same compound showed an IC50 in data set [1] of 0.22 nM.
The matching figures for `CCn1nc(C(C)C)c2c1C(=NC#N)NCC(c1ccc(C)cc1)=N2` [Example 81, 1-Ethyl-3-isopropyl-5-p-tolyl-6,7-dihydro-1H-pyrazolo-[4,3-e][1,4]diazepin-8-ylidenecyanamide]: 245 °C and 0.54 nM.
As to `CCn1nc(C(C)C)c2c1C(=O)NCC(c1ccc(OC)cc1)=N2` [Example 82, 1-Ethyl-3-isopropyl-5-(4-methoxyphenyl)-6,7-dihydro-1H-pyrazolo[4,3-e][1,4]diazepin-8-one], the melting point was found to be 150 °C. For the same compound, the IC50 in data set [1] came to 62 nM.
The matching figures for `CCn1nc(C)c2c1C(=NC#N)NCC(c1ccc(OC)cc1)=N2` [Example 84, 1-Ethyl-3-methyl-5-(4-methoxyphenyl)-6,7-dihydro-1H-pyrazolo[4,3-e][1,4]diazepin-8-ylidenecyanamide]: 265 °C and 60 nM.
